Data: patent US12279616B2, “Stabilization of dimpropyridaz suspensions by triethylammonium chloride” (BASF SE, priority 2019, dated 2025)

Assay: Water-solubility of dimpropyridaz
Type: physicochemical
Conditions: printed as at 20° C. ... at 25° C.
Protocol: Dimpropyridaz is a pesticide that has a water-solubility at 20° C. of approximately 4-5 wt % at 25° C. The water-solubility of dimpropyridaz is comparably high and so Ostwald-ripening represents a crucial issue for Dimpropyridaz suspension concentrates.

In the case of `CCN(C(=O)c1cnn(C(C)C(C)C)c1C)c1ccnnc1` (racemic) [Dimpropyridaz, 1-[1,2-dimethylpropyl]-N-ethyl-5-methyl-N-pyridazin-4-yl-1H-pyrazole-4-carboxamide], the water-solubility is reported as 4-5 wt %.
